Measurements taken from patent publication US11976083B2, “Inhibitors of peptidylarginine deiminases” (Gilead Sciences, Inc., priority 2020, dated 2024).

Target: T1, human PAD4 (Homo sapiens, UniProt Q9UM07)
T1 construct: human PAD4 (NM_012387), A2-P663, was PCR amplified; His-SUMO (N, cleaved yes); made in house; host or cells: E. coli BL21(DE3)
Experiment: In vitro PAD4 BAEE biochemical assay
Conditions: BAEE substrate 3 mM, 5 nM PAD4, 2 mM calcium chloride; geometric mean of multiple experiments
In short: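 Recombinant human PAD4 (5 nM final) with 2 mM CaCl2 was preincubated with compound 30 min at 25 °C in MOPS buffer pH 7.6, then reacted with 3 mM BAEE for 2 h at 25 °C. After EDTA stop, released ammonia was detected by o-phthalaldehyde/DTT fluorescence (ex 405/em 535 nm); IC50 from four-parameter fit, geometric mean.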

T1 sequence (Q9UM07 2-663): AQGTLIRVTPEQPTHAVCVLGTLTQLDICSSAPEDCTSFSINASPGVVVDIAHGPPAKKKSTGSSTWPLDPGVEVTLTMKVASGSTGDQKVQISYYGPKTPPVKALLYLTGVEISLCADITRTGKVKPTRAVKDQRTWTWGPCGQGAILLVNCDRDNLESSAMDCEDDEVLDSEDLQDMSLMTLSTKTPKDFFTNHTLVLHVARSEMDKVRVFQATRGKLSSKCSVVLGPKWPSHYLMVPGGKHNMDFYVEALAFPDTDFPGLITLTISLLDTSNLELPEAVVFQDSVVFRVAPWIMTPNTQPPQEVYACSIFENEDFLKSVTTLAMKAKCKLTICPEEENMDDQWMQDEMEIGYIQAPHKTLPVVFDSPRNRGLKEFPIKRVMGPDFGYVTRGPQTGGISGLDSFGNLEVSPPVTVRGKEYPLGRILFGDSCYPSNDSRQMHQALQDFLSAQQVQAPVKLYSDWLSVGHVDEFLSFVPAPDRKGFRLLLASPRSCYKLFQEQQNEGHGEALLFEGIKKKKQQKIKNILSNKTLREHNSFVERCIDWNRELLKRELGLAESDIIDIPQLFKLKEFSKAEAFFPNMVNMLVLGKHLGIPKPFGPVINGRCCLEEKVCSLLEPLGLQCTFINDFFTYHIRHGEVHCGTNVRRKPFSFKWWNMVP

| SMILES | IC50 |
| --- | --- |
| C[C@H]1NC(=O)[C@H]2[C@@H](CCCCCn3c(-c4nc5cc(C(=O)N[C@H]6CNCC[C@@H]6F)c(F)cc5n4C4CC4)cc4ccc1nc43)C2(F)F [Example 392, 1-cyclopropyl-2-[(2~{R},5~{R},7~{R})-6,6-difluoro-2-methyl-4-oxo-3,13,19-triazatetracyclo[11.5.2.0^{5,7}.0^{16,20}]icosa-1(19),14,16(20),17-tetraen-14-yl]-6-fluoro-~{N}-[(3~{S},4~{S})-4-fluoro-3-piperidyl]benzimidazole-5-carboxamide] | 22 nM |
| COc1cc(C(=O)N2[C@H]3CC[C@@H]2[C@H](N)C3)cc2nc(-c3cc4ccc5nc4n3CCCCCCOc3ccccc3C(=O)N[C@@H]5C)c(C)n12 [Example 213, (2~{R})-19-[7-[(1~{R},2~{R},4~{S})-2-amino-7-azabicyclo[2.2.1]heptane-7-carbonyl]-5-methoxy-3-methyl-imidazo[1,2-a]pyridin-2-yl]-2-methyl-11-oxa-3,18,24-triazatetracyclo[16.5.2.0^{5,10}.0^ {21,25}]pentacosa-1(24),5(10),6,8,19,21(25),22-heptaen-4-one] | 385 nM |
| COc1cc(C(=O)N[C@H]2CNCC[C@@H]2F)cc2nc(-c3cc4ccc5nc4n3CCCCCC[C@H](OC)C(=O)N[C@@H]5C)n(C)c12 [Example 615, ˜{N}-[(3˜{S},4˜{S})-4-fluoro-3-piperidyl]-7-methoxy-2-[(8˜{S},11˜{R})-8-methoxy-11-methyl-9-oxo-1,10,19-triazatricyclo[10.5.2.0^{15,18}]nonadeca-12(19),13,15(18),16-tetraen-17-yl]-1-methyl-benzimidazole-5-carboxamide] | 94 nM |
| C[C@H]1NC(=O)c2ccc(Cl)nc2CCCCCn2c(-c3nc4cc(C(=O)N5C[C@H](N)[C@@H]6CC[C@H]5C6)cc(F)c4n3C3CC3)cc3cc(F)c1nc32 [Example 895, (2~{R})-17-[5-[(1~{S},4~{R}, 5~{R})-4-amino-2-azabicyclo [3.2.1]octane-2-carbonyl]-1-cyclopropyl-7-fluoro-benzimidazol-2-yl]-8-chloro-21-fluoro-2-methyl-3,9,16,22-tetrazatetracyclo[14.5.2.0^ {5,10).0^{19,23}]tricosa-1(22),5(10),6,8,17,19(23),20-heptaen-4-one] | 34 nM |
| COc1cc(C(=O)N2CC[C@@H](OC)[C@@H](N)C2)cc2nc(-c3cc4ccc5nc4n3CC(F)(F)CCC[C@@H]3C[C@H]3C(=O)N(CC(F)F)[C@@H]5C)n(C)c12 [Example 867, (2~{R},5~{R},7~{R})-14-[5-[(3~{S},4~{R})-3-amino-4-methoxy-piperidine-1-carbonyl]-7-methoxy-1-methyl-benzimidazol-2-yl]-3-(2,2-difluoroethyl)-11,11-difluoro-2-methyl-3,13,19-triazatetracyclo[11.5.2.0^ {5,7).0^{16,20}]icosa-1(19),14,16(20),17-tetraen-4-one] | 44 nM |
| COc1cc(C(=O)N2[C@H]3CC[C@@H]2[C@H](N)C3)cc2nc(-c3cc4ccc5nc4n3CCCCCCCCC(=O)N[C@@H]5C)c(C)n12 [Example 318, (12~{R})-18-[7-[(1~{R},2~{R},4~{S})-2-amino-7-azabicyclo[2.2.1]heptane-7-carbonyl]-5-methoxy-3-methyl-imidazo[1,2-a]pyridin-2-yl]-12-methyl-1,11,20-triazatricyclo[11.5.2.0^{16,19}]icosa-13(20),14,16(19),17-tetraen-10-one] | 18 nM |
| C[C@H]1NC(=O)[C@@H]2C[C@H]2CCCC(F)(F)Cn2c(-c3nc4cc(C(=O)N5C[C@H]6CC[C@@H]5[C@@H]6N)cc(F)c4n3C3CC3)cc3ccc1nc32 [Example 646, (2~{R},5~{R},7~{R})-14-[5-[(1~{R},4~{R},7~{R})-7-amino-2-azabicyclo [2.2.1]heptane-2-carbonyl]-1-cyclopropyl-7-fluoro-benzimidazol-2-yl]-11,11-difluoro-2-methyl-3,13,19-triazatetracyclo [11.5.2.0^{5,7}.0^{16,20}] icosa-1(19),14,16(20), 17-tetraen-4-one] | 22 nM |
| C[C@H]1NC(=O)[C@@H]2C[C@@]2(F)/C=C/CCCn2c(-c3nc4cc(C(=O)N5C[C@H](N)[C@@H]6CC[C@H]5C6)cc(F)c4n3C3CC3)cc3ccc1nc32 [Example 919, (2~{R},5~{S},7~{R},8~{E})-14-[5-[(1~{S},4~{R},5~{R})-4-amino-2-azabicyclo[3.2.1]octane-2-carbonyl]-1-cyclopropyl-7-fluoro-benzimidazol-2-yl]-7-fluoro-2-methyl-3,13,19-triazatetracyclo[11.5.2.0^ {5,7}.0^{16,20}]icosa-1(19),8,14,16(20),17-pentaen-4-one] | 20 nM |
| COc1cc(C(=O)N[C@H]2CNCC[C@@H]2F)cc2nc(-c3cc4ccc5nc4n3CCCCCCC(F)(F)C(=O)N[C@@H]5C)n(C)c12 [Example 375, 2-[(11~{R})-8,8-difluoro-11-methyl-9-oxo-1,10,19-triazatricyclo[10.5.2.0^{15,18}]nonadeca-12(19),13,15(18),16-tetraen-17-yl]-~ {N}-[(3~{S},4~{S})-4-fluoro-3-piperidyl]-7-methoxy-1-methyl-benzimidazole-5-carboxamide] | 109 nM |
| COc1cc(C(=O)N2CCC[C@@H](N)[C@H]2C)cc2nc(-c3cc4ccc5nc4n3CC(F)(F)CCC[C@@H]3C[C@H]3C(=O)N[C@@H]5C)n(C)c12 [Example 852, (2~{R},5~{R},7~{R})-14-[5-[(2~{R},3~{R})-3-amino-2-methyl-piperidine-1-carbonyl]-7-methoxy-1-methyl-benzimidazol-2-yl]-11,11-difluoro-2-methyl-3,13,19-triazatetracyclo[11.5.2.0^ {5,7).0^{16,20}]icosa-1(19), 14,16(20),17-tetraen-4-one] | 16 nM |
| COc1cc(C(=O)N2CC[C@@H](O)[C@@H](N)C2)cc2nc(-c3cc4ccc5nc4n3CCCCCCC(C)(C)C(=O)N[C@@H]5C)n(C)c12 [Example 195, (11~{R})-17-[5-[(3~{S},4~{R})-3-amino-4-hydroxy-piperidine-1-carbonyl]-7-methoxy-1-methyl-benzimidazol-2-yl]-8,8,11-trimethyl-1,10,19-triazatricyclo[10.5.2.0^{15,18}]nonadeca-12(19),13,15(18),16-tetraen-9-one] | 56 nM |
| COCCn1c(-c2cc3ccc4nc3n2CCCCCc2nccnc2C(=O)N[C@@H]4C)nc2cc(C(=O)N3CC[C@@H](OC)[C@@H](N)C3)cc(OC)c21 [Example 510, (2~{R})-17-[5-[(3~ {S),4~{R})-3-amino-4-methoxy-piperidine-1-carbonyl]-7-methoxy-1-(2-methoxyethyl)benzimidazol-2-yl]-2-methyl-3,6,9,16,22-pentazatetracyclo[14.5.2.0^ {5,10}.0^{19,23}] tricosa-1(22),5(10),6,8,17,19 (23),20-heptaen-4-one] | 277 nM |

Results, then the molecule that gave them:

| IC50 | SMILES |
| --- | --- |
| 15 nM | CO[C@@H]1CCN(C(=O)c2cc(F)c3c(c2)nc(-c2cc4ccc5nc4n2CCCCCc2nc4ccccc4cc2C(=O)N[C@@H]5C)n3C2CC2)C[C@@H]1N [Example 829, (2~{R})-21-[5-[(3~{S},4~ {R})-3-amino-4-methoxy-piperidine-1-carbonyl]-1-cyclopropyl-7-fluoro-benzimidazol-2-yl]-2-methyl-3,13,20,26-tetrazapentacyclo [18.5.2.0^{5,14}.0^{7,1 2}.0^{23,27}]heptacosa-1(26),5(14),6,8,10,12,21,23(27), 24-nonaen-4-one] |
| 39 nM | COc1cc(C(=O)N2C[C@H](N)[C@@H]3CC[C@H]2C3)cc2nc(-c3cc4ccc5nc4n3CCCCCc3ccccc3C(=O)N[C@@H]5C)c(C)n12 [Example 936, (2~{R})-17-[7-[(1~{S},4~{R}, 5~{R})-4-amino-2-azabicyclo [3.2.1]octane-2-carbonyl]-5-methoxy-3-methyl-imidazo [1,2-a]pyridin-2-yl]-2-methyl-3,16,22-triazatetracyclo [14.5.2.0^{5,10).0^{19,23}] tricosa-1(21),5(10),6,8,17,19,22-heptaen-4-one] |
| 57 nM | COc1cc(C(=O)N2CCC[C@@H](N)C2)cc2nc(-c3cc4ccc5nc4n3CCCCC[C@H](OC)C(C)(C)C(=O)N[C@@H]5C)n(C)c12 [Example 154, (7~{S},11~{R})-17-[5-[(3~{R})-3-aminopiperidine-1-carbonyl]-7-methoxy-1-methyl-benzimidazol-2-yl]-7-methoxy-8,8,11-trimethyl-1,10,19-triazatricyclo[10.5.2.0^{15,18}]nonadeca-12(19),13,15(18),16-tetraen-9-one] |
| 82 nM | COc1cc(C(=O)N2CCC[C@@H](N)C2)cc2nc(-c3cc4ccc5nc4n3CCCCCCC3(CC3)C(=O)N[C@@H]5C)n(C)c12 [Example 233, (11~{R})-17-[5-[(3~{R})-3-aminopiperidine-1-carbonyl]-7-methoxy-1-methyl-benzimidazol-2-yl]-11-methyl-spiro[1,10,19-triazatricyclo[10.5.2.0^{15,18}]nonadeca-12(19),13,15(18),16-tetraene-8,1′-cyclopropane]-9-one] |
| 34 nM | COc1cc(C(=O)N[C@H]2CNCC[C@@H]2F)cc2nc(-c3cc4ccc5nc4n3CCCCC[C@H]3[C@H](C(=O)N[C@@H]5C)C3(F)F)n(C)c12 [Example 368, 2-[(2~{R},5~{R},7~{S})-6,6-difluoro-2-methyl-4-oxo-3,13,19-triazatetracyclo[11.5.2.0^{5,7}.0^{16,20}]icosa-1(19),14,16(20),17-tetraen-14-yl]- ~{N}-[(3~{S},4~{S})-4-fluoro-3-piperidyl]-7-methoxy-1-methyl-benzimidazole-5-carboxamide] |
| 30 nM | CO[C@@H]1CCN(C(=O)c2cc(F)c3c(c2)nc(-c2cc4ccc5nc4n2CCCCCc2nc(Cl)ccc2C(=O)N[C@@H]5C)n3C)C[C@@H]1N [Example 740, (2~{R})-17-[5-[(3~{S},4~ {R})-3-amino-4-methoxy-piperidine-1-carbonyl]-7-fluoro-1-methyl-benzimidazol-2-yl]-8-chloro-2-methyl-3,9,16,22-tetrazatetracyclo [14.5.2.0^{5,10}.0^{19,23}] tricosa-1(22),5(10),6,8,17,19(23),20-heptaen-4-one] |
